26 compounds from ChEMBL document CHEMBL1121784, “Quantitative structure-activity relationships by distance geometry: thyroxine binding site” (J Med Chem, 1981) can be followed below.

The assay has as its target Transthyretin (Homo sapiens) (UniProt P02766). The experiment in a line: Binding affinity against prealbumin.
`CCc1cc(C)c(Oc2c(I)c(C)c(CC(N)C(=O)O)c(C)c2I)c(C)c1Br` (stereo unspecified): the Delta G was -8.2 kcal/M.
`CCc1cc(C)c(Oc2c(I)c(C)c(CC(N)C(=O)O)c(C)c2I)c(C)c1I` (stereo in doubt; 21) displayed a Delta G of -7 kcal/M.
`CCc1cc(C)c(Oc2c(I)c(C)c(CC(N)C(=O)O)c(C)c2I)c(C)c1Cl` (stereo unspecified) yielded a Delta G of -7.7 kcal/M.
With `CCc1c(C)c(C)c(Oc2c(I)c(C)c(CC(N)C(=O)O)c(C)c2I)c(C)c1C` (stereo unspecified), the Delta G is -6.6 kcal/M.
`CCc1c(I)c(C)c(Oc2c(I)c(C)c(CCN)c(C)c2I)c(C)c1I` gave a Delta G of -9.7 kcal/M.
For `CCc1c(I)c(C)c(Oc2c(I)c(C)c(C(=O)O)c(C)c2I)c(C)c1I`, the Delta G is -11.1 kcal/M.
`CCc1cc(C)c(Oc2c(I)c(C)c(CC(=O)O)c(C)c2I)c(C)c1I` registered a Delta G of -9.7 kcal/M.
The figure for `CCc1cc(C)c(Oc2c(I)c(C)c(CC(N)C(=O)O)c(C)c2I)c(C)c1I` (stereo in doubt; 1) is -9.2 kcal/M; for `CCc1c(I)c(C)c(Oc2c(I)c(C)c(CC(N)C(=O)O)c(C)c2I)c(C)c1I` (stereo in doubt; 26) it is -8.7 kcal/M; for `CCc1c(I)c(C)c(Oc2c(I)c(C)c(CC(=O)O)c(C)c2I)c(C)c1I` it is -11.9 kcal/M.
With `CCCc1c(CC)cc(C)c(Oc2c(I)c(C)c(CC(N)C(=O)O)c(C)c2I)c1C` (stereo unspecified), the Delta G is -7.6 kcal/M.
Consider `CCc1c(Br)c(C)c(Oc2c(I)c(C)c(CC(N)C(=O)O)c(C)c2I)c(C)c1Br` (stereo unspecified), for which the Delta G is -9.2 kcal/M.
For `CCc1cc(C)c(Oc2c(C)c(C)c(CC(N)C(=O)O)c(C)c2C)c(C)c1I` (stereo unspecified), the Delta G was -7.8 kcal/M.
`CCc1cc(C)c(Oc2c(I)c(C)c(CC(N)C(=O)O)c(C)c2I)c(C)c1C(C)CC` (stereo unspecified) gave a Delta G of -9 kcal/M.
Turning to `CCc1cc(C)c(Oc2c(I)c(C)c(CC(N)C(=O)O)c(C)c2I)c(C)c1C(C)C` (stereo unspecified), the Delta G is -7.8 kcal/M.
Consider `CCc1c(I)c(C)c(Oc2cc(C)c(CC(N)C(=O)O)c(C)c2I)c(C)c1I` (stereo unspecified), for which the Delta G is -10 kcal/M.
The figure for `CCc1cc(C)c(Oc2cc(C)c(CC(N)C(=O)O)c(C)c2I)c(C)c1I` (stereo unspecified) is -7.6 kcal/M; for `CCc1cc(C)c(Oc2c(I)c(C)c(CC(N)C(=O)O)c(C)c2I)c(C)c1` (stereo unspecified) it is -7.1 kcal/M; for `CCc1c(I)c(C)c(Oc2c(C)c(C)c(CC(N)C(=O)O)c(C)c2C)c(C)c1I` (stereo unspecified) it is -7.7 kcal/M.
In the case of `CCc1c(I)c(C)c(Oc2c(I)c(C)c(CCCC(=O)O)c(C)c2I)c(C)c1I`, the Delta G is -11.3 kcal/M.
`CCc1cc(C)c(Oc2c(I)c(C)c(CC(N)C(=O)O)c(C)c2I)c(C)c1CC(C)C` (stereo unspecified) yielded a Delta G of -8.4 kcal/M.
For `CCc1c(I)c(C)c(Oc2c(I)c(C)c(CCC(=O)O)c(C)c2I)c(C)c1I`, the Delta G was -11.4 kcal/M.
The figure for `CCc1cc(C)c(Oc2c(I)c(C)c(CC(N)C(=O)O)c(C)c2I)c(C)c1C` (stereo unspecified) is -7.4 kcal/M; for `CCc1cc(C)c(Oc2c(I)c(C)c(CC(N)C(=O)O)c(C)c2I)c(C)c1C(C)(C)C` (stereo unspecified) it is -8 kcal/M.
Under `CCc1c(I)c(C)c(Oc2c(I)c(C)c(CC(N)C(=O)O)c(C)c2I)c(C)c1I` (stereo in doubt; 2) stands -10.7 kcal/M; under `CCc1cc(C)c(Oc2cc(C)c(CC(N)C(=O)O)c(C)c2I)c(C)c1` (stereo unspecified), -5.2 kcal/M.
